Measured values as given in patent publication US7064124B2, “NF-κB inhibitor containing substituted benzoic acid derivative as active ingredient” (Daiichi Suntory Pharma Co., Ltd., priority 2001, dated 2006).
Counter-ions that a name gives are not always drawn.

Tested on: not given
Assay: not given
Settings: not given

Structure (SMILES)	melting point
COC1=C(OC)C(=O)C(Cc2ccc(OC(C)=O)c(C(=O)Nc3ncccc3C(=O)O)c2)=C(C)C1=O [Example 194, N-(3-Hydroxycarbonylpyridin-2-yl)-5-(5,6-dimethoxy-3-methyl-1,4-benzoquinon-2-yl)methyl-2-acetoxybenzamide]	148 to 151 °C
COC1=C(OC)C(=O)C(Cc2ccc(OC(C)=O)c(C(=O)Nc3ccccn3)c2)=C(C)C1=O [Example 155, N-(Pyridin-2-yl)-5-(5,6-dimethoxy-3-methyl-1,4-benzoquinon-2-yl)methyl-2-acetoxybenzamide]	124 to 126.5 °C
COC1=C(OC)C(=O)C(Cc2cccc(C(=O)Nc3ccc(N4CCOCC4)cc3)c2OC(C)=O)=C(C)C1=O [Example 178, N-[3-(5,6-Dimethoxy-3-methyl-1,4-benzoquinon-2-yl)methyl-2-acetoxybenzoyl]-4-morpholinoaniline]	168 to 171 °C
COC1=C(OC)C(=O)C(Cc2ccc(C(=O)Nc3ccc(OC)nc3)c(OC(C)=O)c2)=C(C)C1=O [Example 134, N-(6-Methoxypyridin-3-yl)-4-(5,6-dimethoxy-3-methyl-1,4-benzoquinon-2-yl)methyl-2-acetoxybenzamide]	124.7 to 125.5 °C
COC1=C(OC)C(=O)C(Cc2ccc(OC(C)=O)c(C(=O)Nc3cc(OC)ccc3OC)c2)=C(C)C1=O [Example 219, N-[5-(5,6-Dimethoxy-3-methyl-1,4-benzoquinon-2-yl)methyl-2-acetoxybenzoyl]-2,5-dimethoxyaniline]	118.5 to 120 °C
COC1=C(OC)C(=O)C(Cc2cccc(C(=O)Nc3ccc(C(F)(F)F)cc3)c2OC(C)=O)=C(C)C1=O [Example 165, N-[3-(5,6-Dimethoxy-3-methyl-1,4-benzoquinon-2-yl)methyl-2-acetoxybenzoyl]-4-trifluoromethylaniline]	163 to 166 °C

Next, values leading:

melting point	Structure (SMILES)
200.2 to 201.9 °C	COC1=C(OC)C(=O)C(Cc2ccc(C(=O)Nc3ccc(Cl)nc3)c(O)c2)=C(C)C1=O [Example 131, N-(6-Chloropyridin-3-yl)-4-(5,6-dimethoxy-3-methyl-1,4-benzoquinon-2-yl)methyl-2-hydroxybenzamide]
134 to 136.5 °C	COC1=C(OC)C(=O)C(Cc2ccc(O)c(C(=O)Nc3ncccc3C(=O)O)c2)=C(C)C1=O [Example 195, N-(3-Hydroxycarbonylpyridin-2-yl)-5-(5,6-dimethoxy-3-methyl-1,4-benzoquinon-2-yl)methyl-2-hydroxybenzamide]
181.4 to 183.3 °C	COC1=C(OC)C(=O)C(Cc2ccc(C(=O)Nc3ccncc3)c(O)c2)=C(C)C1=O [Example 140, N-(Pyridin-4-yl)-4-(5,6-dimethoxy-3-methyl-1,4-benzoquinon-2-yl)methyl-2-hydroxybenzamide]
194.3 to 196.5 °C	COC1=C(OC)C(=O)C(Cc2ccc(C(=O)Nc3ccc(OC)nc3)c(O)c2)=C(C)C1=O [Example 135, N-(6-Methoxypyridin-3-yl)-4-(5,6-dimethoxy-3-methyl-1,4-benzoquinon-2-yl)methyl-2-hydroxybenzamide]
87 to 89.5 °C	COC1=C(OC)C(=O)C(Cc2ccc(OCc3cccnc3)c(C(=O)NC3CC3)c2)=C(C)C1=O [Example 170, N-Cyclopropyl-5-(5,6-dimethoxy-3-methyl-1,4-benzoquinon-2-yl)methyl-2-(3-pyridylmethyloxy)benzamide]
127.5 to 130 °C	COC1=C(OC)C(=O)C(Cc2ccc(O)c(C(=O)Nc3cccc(C(F)(F)F)c3)c2)=C(C)C1=O [Example 152, N-[5-(5,6-Dimethoxy-3-methyl-1,4-benzoquinon-2-yl)methyl-2-hydroxybenzoyl]-3-trifluoromethylaniline]
200.2 to 202.6 °C	COC1=C(OC)C(=O)C(Cc2ccc(C(=O)Nc3cccnc3Cl)c(O)c2)=C(C)C1=O [Example 133]

Tested on: NF-κB
Assay: NF-κB luciferase reporter assay in A549/NF-κBLuc cells stimulated with IL-1β
Format: cell-based, human
Settings: A549/NF-κBLuc cells; compound added 1 hour before IL-1β, then 3 hours incubation; luciferase activity; read-out: NF-κB Inhibitory Activity (IC50)
Procedure: Effect on Human Lung Cancer-Derived Cell A549 (A549/NF-κBluc) Containing Stably Introduced Luciferase Plasmid (pNFκB-Luc, Stratagene. U.S.A.) Regulated by NF-κB Binding Sequence
Using Lipofectamine (Lifetech Oriental, Tokyo), pNFκB-Luc and pSV2neo (Clontech, U.S.A.) were co-transfected into the A549 cell (ATCC CCL185) and G418 sulfate (1 mg/ml, Lifetech Oriental) was added to the culture medium to select cells containing stably introduced pNFκB-Luc A549/NF-κBLuc.
The compound obtained in Examples each was added to A549/NF-κBLuc and one hour after that, IL-1β capable of activating NF-κB was added. The incubation was further continued for 3 hours.
NF-κB Inhibitory Activity (IC50) of Substituted Benzoic Acid Derivitives: […]

IC50	Structure (SMILES)
46 µM	COC1=C(OC)C(=O)C(Cc2ccc(OCc3cccnc3)c(C(=O)N3CCCCC3)c2)=C(C)C1=O [Example 92 (HCl)]

Same assay, conditions: Homo sapiens, A549, A549/NF-κBLuc cells; compound added 1 hour before IL-1β, then 3 hours incubation; luciferase activity; read-out: NF-κB Inhibitory Activity (IC50)

Structure (SMILES)	IC50
COC1=C(OC)C(=O)C(Cc2ccc(OC(C)=O)c(C(=O)Nc3ccc(OC)c(OC)c3)c2)=C(C)C1=O [Example 107, N-[5-(5,6-Dimethoxy-3-methyl-1,4-benzoquinon-2-yl)methyl-2-acetoxybenzoyl]-3,4-dimethoxyaniline]	84 µM
COC1=C(OC)C(=O)C(Cc2ccc(OC(C)=O)c(C(=O)Nc3ccc(N4CCOCC4)cc3)c2)=C(C)C1=O [Example 110, N-[5-(5,6-Dimethoxy-3-methyl-1,4-benzoquinon-2-yl)methyl-2-acetoxybenzoyl]-4-morpholinoaniline]	34 µM
COC1=C(OC)C(=O)C(Cc2ccc(O)c(C(=O)Nc3ccc(OC)c(OC)c3)c2)=C(C)C1=O [Example 115, N-[5-(5,6-Dimethoxy-3-methyl-1,4-benzoquinon-2-yl)methyl-2-hydroxybenzoyl]-3,4-dimethoxyaniline]	36 µM
COC1=C(OC)C(=O)C(Cc2ccc(OC(C)=O)c(C(=O)Nc3ccc(C(C)=O)cc3)c2)=C(C)C1=O [Example 108, N-[5-(5,6-Dimethoxy-3-methyl-1,4-benzoquinon-2-yl)methyl-2-acetoxybenzoyl]-4-acetylaniline]	67 µM
COC1=C(OC)C(=O)C(Cc2ccc(OC(C)=O)c(C(=O)N(C)c3ccc(OC)cc3)c2)=C(C)C1=O [Example 163, N-Methyl-[5-(5,6-dimethoxy-3-methyl-1,4-benzoquinon-2-yl)methyl-2-acetoxybenzoyl]-4-methoxyaniline]	30 µg/mL
COC1=C(OC)C(=O)C(Cc2ccc(OC)c(C(=O)Nc3ccc(OC)cc3)c2)=C(C)C1=O [Example 82, N-[5-(5,6-Dimethoxy-3-methyl-1,4-benzoquinon-2-yl)methyl-2-methoxybenzoyl]-4-methoxyaniline]	84 µM
COC1=C(OC)C(=O)C(Cc2ccc(OCC(=O)OC(C)(C)C)c(C(=O)N3CCCCC3)c2)=C(C)C1=O [Example 104, N-[5-(5,6-Dimethoxy-3-methyl-1,4-benzoquinon-2-yl)methyl-2-(tert-butoxycarbonylmethyloxy)benzoyl]piperidine]	29 µM
COC1=C(OC)C(=O)C(Cc2ccc(OC(C)=O)c(C(=O)Nc3cc(OC)c(OC)c(OC)c3)c2)=C(C)C1=O [Example 106, N-[5-(5,6-Dimethoxy-3-methyl-1,4-benzoquinon-2-yl)methyl-2-acetoxybenzoyl]-3,4,5-trimethoxyaniline]	70 µM
COC1=C(OC)C(=O)C(Cc2ccc(O)c(C(=O)Nc3ccc(N4CCOCC4)cc3)c2)=C(C)C1=O [Example 118, N-[5-(5,6-Dimethoxy-3-methyl-1,4-benzoquinon-2-yl)methyl-2-hydroxybenzoyl]-4-morpholinoaniline]	8.3 µM
COC1=C(OC)C(=O)C(Cc2ccc(O)c(C(=O)Nc3ccc(C(C)=O)cc3)c2)=C(C)C1=O [Example 116, N-[5-(5,6-Dimethoxy-3-methyl-1,4-benzoquinon-2-yl)methyl-2-hydroxybenzoyl]-4-acetylaniline]	17 µM
COC1=C(OC)C(=O)C(Cc2ccc(O)c(C(=O)Nc3ccc(C(F)(F)F)cc3)c2)=C(C)C1=O [Example 120, N-[5-(5,6-Dimethoxy-3-methyl-1,4-benzoquinon-2-yl)methyl-2-hydroxybenzoyl]-4-trifluoromethylaniline]	1.7 µM
COC1=C(OC)C(=O)C(Cc2ccc(OC(C)=O)c(C(=O)Nc3ccc(Cl)cc3)c2)=C(C)C1=O [Example 109, N-[5-(5,6-Dimethoxy-3-methyl-1,4-benzoquinon-2-yl)methyl-2-acetoxybenzoyl]-4-chloroaniline]	46 µM
COC1=C(OC)C(=O)C(Cc2cccc(C(=O)N3CCOCC3)c2OCc2ccccc2)=C(C)C1=O [Example 65, N-[3-(5,6-Dimethoxy-3-methyl-1,4-benzoquinon-2-yl)methyl-2-benzyloxybenzoyl]morpholine]	37 µM
COC1=C(OC)C(=O)C(Cc2cccc(OCc3ccccc3)c2C(=O)Nc2ccc(OC)cc2)=C(C)C1=O [Example 60, N-[6-(5,6-Dimethoxy-3-methyl-1,4-benzoquinon-2-yl)methyl-2-benzyloxybenzoyl]-4-methoxyaniline]	19 µM
COC1=C(OC)C(=O)C(Cc2cccc(C(=O)Nc3ccc(OC)cc3)c2O)=C(C)C1=O [Example 79, N-[3-(5,6-Dimethoxy-3-methyl-1,4-benzoquinon-2-yl)methyl-2-hydroxybenzoyl]-4-methoxyaniline]	27 µM

The next lines start with the values.

IC50	Structure (SMILES)
19 µM	COC1=C(OC)C(=O)C(Cc2ccc(Oc3ccccc3)c(C(=O)N3CCCCC3C)c2)=C(C)C1=O (stereo not drawn) [Example 125, N-[5-(5,6-Dimethoxy-3-methyl-1,4-benzoquinon-2-yl)methyl-2-phenoxybenzoyl]-2-methylpiperidine]
46 µM	COC1=C(OC)C(=O)C(Cc2ccc(Oc3ccccc3)c(C(=O)N3CCCc4ccccc43)c2)=C(C)C1=O [Example 124, N-[5-(5,6-Dimethoxy-3-methyl-1,4-benzoquinon-2-yl)methyl-2-phenoxybenzoyl]-1,2,3,4-tetrahydroquinoline]
47 µg/mL	COC1=C(OC)C(=O)C(Cc2ccc(O)c(C(=O)Nc3ccc(N)cc3)c2)=C(C)C1=O [Example 204, N-[5-(5,6-Dimethoxy-3-methyl-1,4-benzoquinon-2-yl)methyl-2-hydroxybenzoyl]-p-phenylenediamine]
24 µM	COC1=C(OC)C(=O)C(Cc2ccc(OCc3cccnc3)c(C(=O)N3CCCc4ccccc43)c2)=C(C)C1=O [Example 126, N-[5-(5,6-Dimethoxy-3-methyl-1,4-benzoquinon-2-yl)methyl-2-(3-pyridylmethyloxy)benzoyl]-1,2,3,4-tetrahydroquinoline]
